Laboratory results published in patent publication US8859508B2, “Application of 5-methyl-1,3-benzenediol or derivatives thereof in the preparation of medicines and functional foods for treatment or prevention of depression” (Kunming Institute of Botany, Chinese Academy of Sciences, priority 2007, dated 2014).
“Also recorded” adds a separate entry of the source.

Key:
CMS model mice [1] = assay: FST in chronic unpredictable mild stress (CMS) model mice; assay type: in vivo, mouse; details: for Immobility time (s) (mean ± SEM): oral once a day for 7 days
Description: (§1) Kunming mice (Certificate Number: A4CXK(Chuan)2003-16) from the Institute of Experimental Animals, People's Hospital of Sichuan Province, were used. They were 3-4 weeks old at the beginning of experiments and weighed 25-30 g. ORG was prepared as described in Example 1. Animals were divided into experiment groups with different doses, a vehicle control group, and an imipramine group (Sigma, Batch No. 106k1588) as positive control.
(§2) CMS model: The chronic mild stresses that Kunming mice were subjected to were reversal of circadian rhythm, continuous light, cold, damp bedding, tilt cages, food and water restriction, and restraint. […] The stress period lasted for 8 weeks. In the last week, ORG was administered orally once a day for 7 consecutive days. The behavioral test was carried out 30 min after the last administration. The parameter tested was immobility time in the FST and TST in the CMS model mice. The methods of FST and TST and data analysis were as described above.

CMS model mice [2] = assay: TST in chronic unpredictable mild stress (CMS) model mice; assay type: in vivo, mouse; details: for Immobility time (s) (mean ± SEM): oral once a day for 7 days
Description: as §1, §2

DD model mice = assay: FST in constant darkness (DD) model mice; assay type: in vivo, mouse; details: for Immobility time (s) (mean ± SEM): oral once a day for 1 week
Description: Kunming mice (Certificate Number: A4CXK(Chuan)2003-16) from the Institute of Experimental Animals, People's Hospital of Sichuan Province, were used. They were 3-4 weeks old at the beginning of the experiments and weighed 25-30 g. ORG was prepared as described in Example 1. Animals were divided into experimental groups with different doses, vehicle control groups, and an imipramine group (Sigma, Batch No. 106k1588) as positive control.
DD model in mice: Mice were kept under 24 h continuous dark conditions. The replacement of padding, addition of food and water, and other operations were undertaken in the condition that the intensity of red light was less than 1.0 lux. The period of this condition lasted for 28 days. In the last week, ORG was administered orally once a day for 1 week. The FST and TST were carried out 30 min after the last administration. Methods and data analysis were as described above.

SD model mice = assay: FST in sleep deprivation (SD) model mice; assay type: in vivo, mouse
Description: Kunming mice (Certificate Number: A4CXK(Chuan)2003-16) from the Institute of Experimental Animals, People's Hospital of Sichuan Province, were used. They were 3-4 weeks old at the beginning of the experiments and weighed 25-30 g. ORG was prepared as described in Example 1. Animals were divided into experiment groups with different doses, a vehicle control group, and an imipramine group (Sigma, Batch No. 1061c1588) as positive control.
SD model: A modified method with multiple platforms in a water environment was used to establish the SD model in mice. Mice on the platforms were free to eat and drink. However, if it fell asleep, it fell into the water because of the loss of muscle tone. The fallen animal climbed onto the platform again via a tilt pole which propped up the platforms. After 72 h of sleep deprivation, ORG was administered orally 24 h and 5 h before the FST started. The immobility time of animals were recorded. Methods and data analysis were as described above.

[3] = Acute toxicity test of ORG in mice; assay type: in vivo; details: mouse, in vivo, 1750 mg/kg; acute toxicity test, Kunming mice, oral; read-out: median toxic dose (TD50)
Description: (§3) Kunming mice (Certificate Number: A4CXK(Chuan)2003-16) from the Institute of Experimental Animals, People's Hospital of Sichuan Province, were used. They were 3-4 weeks old and at the beginning of the experiment and weighed 25-30 g. ORG was prepared as described in Example 1. ORG (1750 mg) was dissolved in 10 ml NS to give a concentration of 175 mg/ml. Mice were divided into two groups, the ORG group for evaluation was given ORG and a group was treated with NS for vehicle control. ORG and NS were given to each group orally at a volume of 0.1 ml/10 g.

Kunming mice [4] = assay: Acute toxicity test of ORG in mice; assay type: in vivo; details: mice, 1750 mg/kg oral
Description: as §3

Kunming mice [5] = assay: Forced swim test (FST) in mice
[6] = CMS mice, test 30 min after last dose, 1.25 mg/kg
[7] = Mus musculus, CMS model mice, ORG oral

Cc1cc(O)cc(OC2OC(CO)C(O)C(O)C2O)c1 [ORG, orcinol-1-O-β-D-glucopyranoside]
therapeutic index (TI) = TD50÷ED50 (CMS model mice [1]; CMS mice): > 2160
Immobility time (s) (mean ± SEM) (CMS model mice [1]; CMS mice, 2.5 mg/kg): 177.00 ± 11.78 s
Immobility time (s) (mean ± SEM) (CMS model mice [1]; CMS mice, 5 mg/kg): 177.50 ± 12.39 s
Immobility time (s) (mean ± SEM) (CMS model mice [1]; CMS mice, 10 mg/kg): 170.84 ± 10.48 s
Immobility time (s) (mean ± SEM) (CMS model mice [1]; CMS mice, 20 mg/kg): 164.95 ± 11.36 s
Immobility time (s) (mean ± SEM) (CMS model mice [1]; [6]): 190.90 ± 12.94 s
best dose for the antidepressant effect (CMS model mice [1]; CMS model mice, ORG oral): 20 mg/kg
ED50 (CMS model mice [1]; [7]): 0.81 mg/kg
therapeutic index (TI) = TD50÷ED50 (CMS model mice [2]; CMS mice): > 415
Immobility time (s) (mean ± SEM) (CMS model mice [2]; CMS mice, 5 mg/kg): 146.30 ± 11.66 s
Immobility time (s) (mean ± SEM) (CMS model mice [2]; CMS mice, 10 mg/kg): 145.31 ± 12.41 s
Immobility time (s) (mean ± SEM) (CMS model mice [2]; CMS mice, 20 mg/kg): 140.69 ± 14.14 s
Immobility time (s) (mean ± SEM) (CMS model mice [2]; [6]): 171.20 ± 13.02 s
best dose for the antidepressant effect (CMS model mice [2]; CMS model mice, ORG oral): 20 mg/kg
ED50 (CMS model mice [2]; [7]): ~4.22 mg/kg
therapeutic index = TD50÷ED50 (DD model mice; DD mice): > 1182
Immobility time (s) (mean ± SEM) (DD model mice; DD mice, 2.5 mg/kg): 174.27 ± 11.89 s
Immobility time (s) (mean ± SEM) (DD model mice; DD mice, 5 mg/kg): 161.70 ± 14.89 s
Immobility time (s) (mean ± SEM) (DD model mice; DD mice, 10 mg/kg): 151.86 ± 8.89 s
Immobility time (s) (mean ± SEM) (DD model mice; DD mice, 40 mg/kg): 156.60 ± 13.86 s
Immobility time (s) (mean ± SEM) (DD model mice; DD mice, test 30 min after last dose, 1.25 mg/kg): 180.27 ± 10.36 s
dose of the best efficacy (DD model mice; DD model mice, ORG oral): 10 mg/kg
ED50 (DD model mice; Mus musculus, DD model mice, ORG oral): ~1.48 mg/kg
dose of the best efficacy (SD model mice; FST, SD model mice, ORG oral twice): 10 mg/kg
ED50 (SD model mice; Mus musculus, FST, SD model mice, ORG oral twice): ~3.79 mg/kg
therapeutic index = TD50÷ED50 (SD model mice; SD mice, FST): > 462
Immobility time (s) (mean ± SEM) (SD model mice; SD model mice (72 h sleep deprivation), oral 24 h and 5 h before FST, 1.25 mg/kg): 198.00 ± 11.43 s
Immobility time (s) (mean ± SEM) (SD model mice; SD model mice, 24 h and 5 h before FST, 7.5 mg/kg): 153.00 ± 11.83 s
Immobility time (s) (mean ± SEM) (SD model mice; SD model mice, oral 24 h and 5 h before FST, 2.5 mg/kg): 177.67 ± 15.95 s
Immobility time (s) (mean ± SEM) (SD model mice; SD model mice, oral 24 h and 5 h before FST, 5 mg/kg): 160.80 ± 11.64 s
Immobility time (s) (mean ± SEM) (SD model mice; SD model mice, oral 24 h and 5 h before FST, 10 mg/kg): 148.23 ± 7.80 s
Immobility time (s) (mean ± SEM) (SD model mice; SD model mice, oral 24 h and 5 h before FST, 20 mg/kg): 162.67 ± 9.27 s
TD50 [3]: > 1750 mg/kg
acute toxicity: survival (Kunming mice [4]; 14 days): All mice survived
acute toxicity: weight gain (Kunming mice [4]; 14 days): the weight gain was normal
acute toxicity: appearance, behavior, mental status, appetite, hair, color, breathing (ethological investigation) (Kunming mice [4]; observed for 14 days, 1750 mg/kg): did not find abnormalities; also recorded: nothing abnormal was found
acute toxicity: pathological section of visceral organs (Kunming mice [4]; sacrificed on day 14): no evident abnormalities
dose of the best efficacy (Kunming mice [5]; FST mice, ORG i.g. 24 h and 5 h before test): 3 mg/kg
Immobility time (s) (mean ± SEM) (Kunming mice [5]; FST mice, i.g. 24 h and 5 h before test, 0.093 mg/kg): 169.35 ± 4.32 s
Immobility time (s) (mean ± SEM) (Kunming mice [5]; FST mice, i.g., 0.186 mg/kg): 155.30 ± 9.19 s
Immobility time (s) (mean ± SEM) (Kunming mice [5]; FST mice, i.g., 0.3725 mg/kg): 137.57 ± 6.41 s
Immobility time (s) (mean ± SEM) (Kunming mice [5]; FST mice, i.g., 0.75 mg/kg): 139.45 ± 7.04 s
Immobility time (s) (mean ± SEM) (Kunming mice [5]; FST mice, i.g., 1.5 mg/kg): 127.23 ± 6.63 s
Immobility time (s) (mean ± SEM) (Kunming mice [5]; FST mice, i.g., 3 mg/kg): 114.41 ± 6.23 s
Immobility time (s) (mean ± SEM) (Kunming mice [5]; FST mice, i.g., 6 mg/kg): 129.76 ± 5.99 s
Immobility time (s) (mean ± SEM) (Kunming mice [5]; FST mice, i.g., 12 mg/kg): 122.71 ± 5.56 s
Immobility time (s) (mean ± SEM) (Kunming mice [5]; FST mice, i.g., 24 mg/kg): 121.57 ± 6.13 s
Immobility time (s) (mean ± SEM) (Kunming mice [5]; FST mice, i.g., 48 mg/kg): 135.36 ± 4.60 s
Immobility time (s) (mean ± SEM) (Kunming mice [5]; FST mice, i.g., 96 mg/kg): 145.34 ± 5.39 s
Immobility (% NS) (mean ± SEM) (Kunming mice [5]; FST mice, oral 3 mg/kg twice in 24 h, recorded 5 h after last treatment (Table 7)): 64.03 ± 7.20 % NS
onset of antidepressant effect after the second administration (Kunming mice [5]; FST mice, oral 3 mg/kg twice, 19 h apart): 2.5 h
maintenance of antidepressant effect (Kunming mice [5]; FST mice, oral 3 mg/kg twice, 19 h apart, time after second administration): at least 72 h
Immobility (% NS) (mean ± SEM) (Kunming mice [5]; FST mice, oral 3 mg/kg, 1 administration in 24 h, recorded 5 h after last treatment): 83.57 ± 6.66 % NS
Immobility (% NS) (mean ± SEM) (Kunming mice [5]; FST mice, oral 3 mg/kg, 2 administrations in 24 h, recorded 5 h after last treatment (Table 6)): 64.98 ± 5.96 % NS
Immobility (% NS) (mean ± SEM) (Kunming mice [5]; FST mice, oral 3 mg/kg, 3 administrations in 24 h, recorded 5 h after last treatment): 65.65 ± 9.67 % NS
Immobility (% NS) (mean ± SEM) (Kunming mice [5]; FST mice, oral 3 mg/kg, 4 administrations in 24 h, recorded 5 h after last treatment): 89.81 ± 6.50 % NS
Immobility (% NS) (mean ± SEM) (Kunming mice [5]; FST mice, oral 3 mg/kg, 5 administrations in 24 h, recorded 5 h after last treatment): 91.26 ± 5.93 % NS
Immobility (% NS) (mean ± SEM) (Kunming mice [5]; FST mice, oral 6 mg/kg once in 24 h, recorded 5 h after treatment (Table 7)): 80.70 ± 4.64 % NS
Immobility (% NS) (mean ± SEM) (Kunming mice [5]; FST mice, oral, dose 6 mg/kg (3 mg/kg twice, 19 h apart), 2 weeks after last administration): 99.54 ± 5.54 % NS
Immobility (% NS) (mean ± SEM) (Kunming mice [5]; FST mice, oral, dose 6 mg/kg (3 mg/kg twice, 19 h apart), 2.5 h after last administration): 73.63 ± 4.21 % NS
Immobility (% NS) (mean ± SEM) (Kunming mice [5]; FST mice, oral, dose 6 mg/kg (3 mg/kg twice, 19 h apart), 5 h after last administration): 71.92 ± 6.05 % NS
Immobility (% NS) (mean ± SEM) (Kunming mice [5]; FST mice, oral, dose 6 mg/kg (3 mg/kg twice, 19 h apart), 24 h after last administration): 62.83 ± 6.59 % NS
Immobility (% NS) (mean ± SEM) (Kunming mice [5]; FST mice, oral, dose 6 mg/kg (3 mg/kg twice, 19 h apart), 72 h after last administration): 77.33 ± 6.07 % NS
ED50 (Kunming mice [5]; Mus musculus): ~0.22 mg/kg
therapeutic index (TI) = TD50÷ED50 (Kunming mice [5]; mice, FST): > 7955
